Measurements as given in patent publication US20250041363A1, “COMPOSITIONS AND METHODS FOR TREATMENT OF ALCOHOL USE DISORDER AND ALCOHOL-ASSOCIATED LIVER DISEASE” (UNIVERSITY OF LOUISVILLE RESEARCH FOUNDATION, INC., priority 2023, published 2025).

What was measured:
Format in all cases: in vivo, human
[1] = test system: patients with moderately severe acute alcohol associated hepatitis (mAH, MELD <21) with heavy alcohol drinking; assay: Double-blind placebo-controlled trial of LGG: liver injury, severity and progression markers; details: for INR / ABIC / MELD / Creatinine / Albumin / AST:ALT / Total Bilirubin / ALT / AST: LGG arm; for INR: baseline 1.453 ± 0.35; for ABIC: baseline 6.3 ± 1.26; for MELD: baseline 17.42 ± 1.79; for Creatinine: baseline 0.64 ± 0.17; for Albumin: baseline 2.7 ± 0.6; for AST:ALT: baseline 2.74 ± 1.54; for Total Bilirubin: baseline 7.2 ± 4.5; for ALT: baseline 73.7 ± 46.7; for AST: baseline 169.0 ± 88.4
From the text: (§1) We analyzed data from 46 participants in a large NIAAA-funded clinical trial performed at 4 medical centers (DASH Consortium). This investigation was a double-blind placebo-controlled study of patients with moderately severe acute alcohol associated hepatitis (mAH, MELD <21) who had pre-existing/ongoing heavy alcohol drinking, with clinical assessments at multiple time points. Data on demographics, drinking, and liver injury were collected and assessed at baseline (BL), 1-month (1-m), 3-months (3-m), and 6-months (6-m). Alcohol consumption was measured by baseline AUDIT, monthly alcohol use questionnaire; and liver injury was assessed by standard liver injury markers. All patients received standard medical management for liver disease and counseling for AUD in the standard of care protocol.

[2] = test system: patients with moderately severe acute alcohol associated hepatitis (mAH, MELD <21) with heavy alcohol drinking; assay: Double-blind placebo-controlled trial of LGG: alcohol consumption (monthly alcohol use questionnaire); details: for #Drinks (Weekly): LGG arm, baseline 34.71 ± 21.99
From the text: Conduct a pilot double-blind treatment trial identifying the dual therapeutic role of LGG in patients with comorbid AUD and moderate AH. Evaluate the therapeutic effects of LGG on lowering alcohol consumption over 6 months of treatment compared to placebo. Evaluate the therapeutic outcomes of LGG treatment on liver injury, progression and prognosis compared to placebo. Validate the central role of gut dysfunction in the altered gut-liver and gut-brain response in patients with AUD and moderate AH.
as §1

[3] = test system: AUD patients; assay: Pilot study of LGG in AUD patients: heavy drinking markers; details: AUD patients treated for 6-months, preliminary results

## Lactobacillus rhamnosus GG [LGG]
[1]; 1 month, FIG. 2A
  1 month change in MELD, LGG arm compared to the placebo arm: significantly dropped
[1]; 1 month, FIG. 2C, p=0.005
  1 month change in ABIC score: dropped significantly
[1]; FIG. 2B
  drop in the AST:ALT ratio, LGG arm compared to the placebo arm: significant
[1]; 1 month, n = 17
  INR: 1.32 ± 0.3 Unit Score
  ABIC: 5.84 ± 1.2 Unit Score
  MELD: 13.29 ± 4.34 Unit score
[1]; 1 month, n = 18
  Creatinine: .81 ± 0.5 mg/dL
  Albumin: 3.5 ± 0.8 g/dL
  AST:ALT: 1.99 ± 1.2
  Total Bilirubin: 2.54 ± 1.4 mg/dL
  ALT: 43.6 ± 44.9 U/L
  AST: 71.72 ± 59.9 U/L
[1]; 3 month, n = 17
  Creatinine: 0.90 ± 0.4 mg/dL
  INR: 1.31 ± 0.45 Unit Score
  Albumin: 3.6 ± 0.9 g/dL
  AST:ALT: 1.7 ± 0.82
  ABIC: 5.98 ± 1.5 Unit Score
  Total Bilirubin: 3.82 ± 8.3 mg/dL
  MELD: 12.06 ± 7.73 Unit score
  ALT: 33.39 ± 36.27 U/L
  AST: 58.65 ± 51.9 U/L
[1]; 6 month, n = 15
  Total Bilirubin: 2.8 ± 3.84 mg/dL
  MELD: 12.40 ± 8.4 Unit score
[1]; 6 month, n = 16
  Creatinine: 0.88 ± 0.35 mg/dL
  INR: 1.41 ± 0.69 Unit Score
  Albumin: 4.01 ± 0.94 g/dL
  AST:ALT: 1.65 ± 0.97
  ABIC: 6.08 ± 1.46 Unit Score
  ALT: 38.75 ± 32.48 U/L
  AST: 48.75 ± 25.20 U/L
[1]; LGG treatment, summary
  biomarkers of liver injury progression and severity: significant reduction
[2]; 6-month assessment, compared to placebo
  drinking level reached (social or abstinence level): < 4 drinks/week
[2]; 6-month assessment, p=0.0128
  change in average drinks/week in LGG arm compared to the placebo arm: significant drop
[2]; 6 months of LGG treatment
  heavy drinking levels after treatment: reduced heavy drinking levels to the social drinking or abstinence levels
[2]; 1 month, n = 23
  #Drinks (Weekly): 1.81 ± 3.77
[2]; 3 month, n = 18
  #Drinks (Weekly): 2.83 ± 7.71
[2]; 6 month, n = 16
  #Drinks (Weekly): 0.31 ± 1.01
[2]; over 6 months, p≤0.001 in the LGG group
  lowering of alcohol consumption (average drinking/week) over 6 months within group: significant, with higher significance
[2]; vs four of the 22 placebo, Fisher's exact test p=0.0012, Likelihood ratio=9.0
  patients with reduction of alcohol drinks/week to the level of social drinking criteria: sixteen of the 24
[3]
  heavy drinking markers: reduction of heavy drinking markers
